Values of other authors in patent publication US20130338178A1, “SIRTUIN MODULATORS AS INHIBITORS OF CYTOMEGALOVIRUS” (THE TRUSTEES OF PRINCETON UNIVERSITY, priority 2011, published 2013).

Experiments:
SIRT1 = target: T1, SIRT1 (Homo sapiens, UniProt Q96EB6); settings: SIRT1 preincubated with NAD+ and compound, means ± SD, cited from earlier work
T1 sequence (Q96EB6 1-747): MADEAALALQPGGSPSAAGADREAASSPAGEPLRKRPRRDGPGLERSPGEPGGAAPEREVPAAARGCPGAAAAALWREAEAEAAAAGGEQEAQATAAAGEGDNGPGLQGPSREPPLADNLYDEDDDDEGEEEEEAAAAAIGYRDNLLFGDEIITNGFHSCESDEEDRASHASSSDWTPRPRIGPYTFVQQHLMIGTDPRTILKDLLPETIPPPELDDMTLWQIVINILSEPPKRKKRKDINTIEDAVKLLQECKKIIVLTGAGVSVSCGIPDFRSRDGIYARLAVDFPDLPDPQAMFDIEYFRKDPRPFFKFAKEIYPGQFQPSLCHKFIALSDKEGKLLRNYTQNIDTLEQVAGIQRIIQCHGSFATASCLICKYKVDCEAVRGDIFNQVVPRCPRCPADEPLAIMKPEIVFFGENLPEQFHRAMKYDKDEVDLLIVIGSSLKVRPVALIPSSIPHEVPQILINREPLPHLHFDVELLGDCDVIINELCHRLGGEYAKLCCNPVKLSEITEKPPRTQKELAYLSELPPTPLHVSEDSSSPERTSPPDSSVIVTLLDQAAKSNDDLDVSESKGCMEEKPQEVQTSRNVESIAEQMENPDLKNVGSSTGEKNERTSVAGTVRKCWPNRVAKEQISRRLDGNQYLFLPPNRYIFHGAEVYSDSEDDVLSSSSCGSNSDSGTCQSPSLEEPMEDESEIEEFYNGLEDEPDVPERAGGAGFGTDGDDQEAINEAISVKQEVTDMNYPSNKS

sirtuin = settings: cited from earlier work; for % Activity at 50 μM / % Activity at 500 μM: residual enzyme activity relative to control with no inhibitor; for IC50: analogs of compound 12
SIRT2 = target: T2, SIRT2 (Homo sapiens, UniProt Q8IXJ6); settings: cited from earlier work
T2 sequence (Q8IXJ6 1-389): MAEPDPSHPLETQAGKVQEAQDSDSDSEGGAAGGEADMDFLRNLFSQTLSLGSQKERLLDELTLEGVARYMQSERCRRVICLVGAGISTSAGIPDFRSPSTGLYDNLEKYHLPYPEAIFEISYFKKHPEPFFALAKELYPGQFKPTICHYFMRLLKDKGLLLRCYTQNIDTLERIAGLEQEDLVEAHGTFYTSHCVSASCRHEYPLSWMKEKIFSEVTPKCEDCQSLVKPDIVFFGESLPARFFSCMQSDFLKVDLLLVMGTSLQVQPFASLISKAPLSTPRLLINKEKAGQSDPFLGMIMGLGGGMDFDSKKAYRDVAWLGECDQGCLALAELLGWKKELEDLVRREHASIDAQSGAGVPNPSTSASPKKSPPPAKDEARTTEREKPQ

Row | Compound | inhibition at 300 μM (%) (SIRT1) | IC50 (SIRT1) [µM] | other results
1 | N#CCC(=O)NCCCC[C@H](NC(=O)OCc1ccccc1)C(=O)Nc1ccccc1 [2a] | 50 ± 7.9 |  | 
2 | O=C(CC(F)(F)F)NCCCC[C@H](NC(=O)OCc1ccccc1)C(=O)Nc1ccccc1 [2b] | 44 ± 17 | > 300 | 
3 | CSCC(=O)NCCCC[C@H](NC(=O)OCc1ccccc1)C(=O)Nc1ccccc1 [2c] | 32 ± 20 | > 300 | 
4 | C[S+]([O-])CC(=O)NCCCC[C@H](NC(=O)OCc1ccccc1)C(=O)Nc1ccccc1 (stereo partly drawn) [2d] | 46 ± 3.0 | > 300 | 
5 | CS(=O)(=O)CC(=O)NCCCC[C@H](NC(=O)OCc1ccccc1)C(=O)Nc1ccccc1 [2e] | 56 ± 1.9 |  | 
6 | O=C(Cc1ccccc1C(F)(F)F)NCCCC[C@H](NC(=O)OCc1ccccc1)C(=O)Nc1ccccc1 [2f] | 49 ± 13 | > 300 | 
7 | O=C(Cc1ccc(C(F)(F)F)cc1)NCCCC[C@H](NC(=O)OCc1ccccc1)C(=O)Nc1ccccc1 [2g] | 41 ± 20 | > 300 | 
8 | O=C(Cc1ccccc1[N+](=O)[O-])NCCCC[C@H](NC(=O)OCc1ccccc1)C(=O)Nc1ccccc1 [2h] | 40 ± 12 | > 300 | 
9 | O=C(Cc1ccc([N+](=O)[O-])cc1)NCCCC[C@H](NC(=O)OCc1ccccc1)C(=O)Nc1ccccc1 [2i] | 51 ± 17 |  | 
10 | COC(=O)CC(=O)NCCCC[C@H](NC(=O)OCc1ccccc1)C(=O)Nc1ccccc1 [2j] | 92 ± 1.2 | 35 ± 5.2 | 
11 | CCOC(=O)CC(=O)NCCCC[C@H](NC(=O)OCc1ccccc1)C(=O)Nc1ccccc1 [2k] | 91 ± 1.3 | 3.9 ± 0.29 | 
12 | CCCOC(=O)CC(=O)NCCCC[C@H](NC(=O)OCc1ccccc1)C(=O)Nc1ccccc1 [2l] | 71 ± 0.72 | 62 ± 3.7 | 
13 | CC(C)OC(=O)CC(=O)NCCCC[C@H](NC(=O)OCc1ccccc1)C(=O)Nc1ccccc1 [2m] | 72 ± 5.1 | 47 ± 5.3 | 
14 | CCCCOC(=O)CC(=O)NCCCC[C@H](NC(=O)OCc1ccccc1)C(=O)Nc1ccccc1 [2n] | 64 ± 6.1 | 73 ± 3.2 | 
15 | CC(C)(C)OC(=O)CC(=O)NCCCC[C@H](NC(=O)OCc1ccccc1)C(=O)Nc1ccccc1 [2o] | 6.0 ± 0.64 | > 300 | 
16 | O=C(CC(=O)OCC1CC1)NCCCC[C@H](NC(=O)OCc1ccccc1)C(=O)Nc1ccccc1 [2p] | 93 ± 1.2 | 14 ± 2.6 | 
17 | O=C(CC(=O)OCC(F)(F)F)NCCCC[C@H](NC(=O)OCc1ccccc1)C(=O)Nc1ccccc1 [2q] | 94 ± 1.5 | 15 ± 3.1 | 
18 | O=C(CC(=O)OCc1ccccc1)NCCCC[C@H](NC(=O)OCc1ccccc1)C(=O)Nc1ccccc1 [2r] | 71 ± 4.3 | 96 ± 4.8 | 
19 | NC(=O)CC(=O)NCCCC[C@H](NC(=O)OCc1ccccc1)C(=O)Nc1ccccc1 [2s] | 25 ± 2.3 | > 300 | 

Row | Compound | inhibition at 300 μM (%) (SIRT1) | IC50 (SIRT1) [µM] | other results
20 | CNC(=O)CC(=O)NCCCC[C@H](NC(=O)OCc1ccccc1)C(=O)Nc1ccccc1 [2t] | 24 ± 2.5 | > 300 | 
21 | CN(C)C(=O)CC(=O)NCCCC[C@H](NC(=O)OCc1ccccc1)C(=O)Nc1ccccc1 [2u] | 20 ± 1.3 | > 300 | 
22 | CC(=O)CC(=O)NCCCC[C@H](NC(=O)OCc1ccccc1)C(=O)Nc1ccccc1 [2v] | 45 ± 6.0 | > 300 | 
23 | CCC(=O)CC(=O)NCCCC[C@H](NC(=O)OCc1ccccc1)C(=O)Nc1ccccc1 [2w] | 67 ± 1.2 | 88 ± 3.9 | 
24 | CCCC(=O)CC(=O)NCCCC[C@H](NC(=O)OCc1ccccc1)C(=O)Nc1ccccc1 [2x] | 78 ± 5.2 |  | 
25 | O=C(CC(=O)C(F)(F)F)NCCCC[C@H](NC(=O)OCc1ccccc1)C(=O)Nc1ccccc1 [2y] | 7.9 ± 0.92 | > 300 | 
26 | O=C(CC(=O)c1ccccc1)NCCCC[C@H](NC(=O)OCc1ccccc1)C(=O)Nc1ccccc1 [2z] | 37 ± 7.4 | > 300 | 
27 | C#CC1c2cc(O)c(OC)cc2CCN1C (stereo not drawn) [7-52] |  |  | % Activity at 50 μM (sirtuin): 100%; % Activity at 500 μM (sirtuin): 86%
28 | COCC#CC1(C)c2cc(O)c(OC)cc2CCN1C (stereo not drawn) [7-123] |  |  | % Activity at 50 μM (sirtuin): 100%; % Activity at 500 μM (sirtuin): 100%
29 | COCCCC1c2cc(O)c(OC)cc2CCN1C (stereo not drawn) [7-128] |  |  | % Activity at 50 μM (sirtuin): 99%; % Activity at 500 μM (sirtuin): 92%
30 | COC/C=C\C1c2cc(O)c(OC)cc2CCN1C (stereo not drawn) [7-129] |  |  | % Activity at 50 μM (sirtuin): 97%; % Activity at 500 μM (sirtuin): 94%
31 | COc1cc2c(cc1O)CN(C)CC2 [7-133] |  |  | % Activity at 50 μM (sirtuin): 100%; % Activity at 500 μM (sirtuin): 98%
32 | C(=C1c2ccccc2-c2ccccc21)c1ccc(N=C2c3ccccc3-c3ccccc32)cc1 [CSC2] |  |  | Sirt2 effect (SIRT2): inhibition
33 | Cc1cc(N2CCOCC2)nc2ccc(Cc3ccc4nc(N5CCOCC5)cc(C)c4c3)cc12 [CSC4] |  |  | Sirt2 effect (SIRT2): inhibition
34 | C=C(C(C)c1ccc2c(c1)Cc1ccccc1-2)C(C)c1ccc2c(c1)Cc1ccccc1-2 (stereo not drawn) [CSC7] |  |  | Sirt2 effect (SIRT2): inhibition
35 | Cc1ccc2c(c1)CCC1C2CCC2(C)C(OC(=O)CCc3ccccc3)CCC12 (stereo not drawn) [CSC8] |  |  | Sirt2 effect (SIRT2): inhibition
36 | CC12Cc3cnc(-c4ccccc4)nc3CC1CCC1C2CCC2(C)C1CCC2(C)O (stereo not drawn) [CSC13] |  |  | Sirt2 effect (SIRT2): inhibition
37 | [H]/N=C(\c1ccc2ccccc2c1)c1ccccc1Cc1ccccc1 [CSC22] |  |  | Sirt2 effect (SIRT2): inhibition
38 | [H]/N=C(\c1cc(C)cc(C)c1)c1ccccc1Cc1cccc2ccccc12 [CSC23] |  |  | Sirt2 effect (SIRT2): inhibition

Row | Compound | inhibition at 300 μM (%) (SIRT1) | IC50 (SIRT1) [µM] | other results
39 | COCC#CC1c2cc(O)c(OC)cc2CCN1Cc1ccc(OC)cc1 (stereo not drawn) [Compound 14b] |  |  | % Activity at 50 μM (sirtuin): 92%; % Activity at 500 μM (sirtuin): 2%
40 | C[S+]([O-])CCC(C(=O)O)N1C(=O)c2ccccc2C1=O (stereo not drawn) [compound 00032] |  |  | IC50 (sirtuin): No inhibition
41 | CC(C)C(=O)CCN1C(=O)c2ccccc2C1=O [compound 04265] |  |  | IC50 (sirtuin): No inhibition
42 | O=C(O)CCN1C(=O)c2cc(Cl)c(Cl)cc2C1=O [compound 39008] |  |  | IC50 (sirtuin): No inhibition
43 | Nc1ccc2c(c1)C(=O)N(CCC(=O)O)C2 [compound 42071] |  |  | IC50 (sirtuin): No inhibition
44 | O=C(O)CCCN1C(=O)c2ccccc2C1=O [compound 47032] |  |  | IC50 (sirtuin): No inhibition
45 | O=C(O)CCN1C(=O)c2ccc(-c3nc4ccccc4c(=O)o3)cc2C1=O [compound 47054] |  |  | IC50 (sirtuin): No inhibition
46 | Nc1cccc(Cc2cccc(N)c2)c1 [compound 56413] |  |  | % Activity at 50 μM (sirtuin): 100%; % Activity at 500 μM (sirtuin): 100%
47 | Oc1ccc(Cc2ccccc2)cc1 [compound 72030] |  |  | % Activity at 50 μM (sirtuin): 100%; % Activity at 500 μM (sirtuin): 88%
48 | O=C1c2ccccc2C(=O)N1CCBr [compound 91032] |  |  | IC50 (sirtuin): No inhibition
49 | OC(c1ccccc1)c1ccc(C(F)(F)F)cc1 (stereo not drawn) [compound 97211] |  |  | % Activity at 50 μM (sirtuin): 100%; % Activity at 500 μM (sirtuin): 81%
50 | Cc1cc(Cc2cc(C)c(O)c(C)c2)cc(C)c1O [compound 97252] |  |  | % Activity at 50 μM (sirtuin): 89%; % Activity at 500 μM (sirtuin): 43%
51 | Cc1cccc(OCC(=O)Oc2ccc3c(C)cc(=O)oc3c2)c1 [compound 5140108] |  |  | % Activity at 50 μM (sirtuin): 90%; % Activity at 500 μM (sirtuin): 13%
52 | Cc1cc(=O)oc2cc(OC(=O)COc3ccccc3)ccc12 [compound 5237467] |  |  | % Activity at 50 μM (sirtuin): 91%; % Activity at 500 μM (sirtuin): 45%
53 | Cc1cc(=O)oc2cc(OC(=O)CCCOc3ccc(Cl)cc3Cl)ccc12 [compound 5366302] |  |  | % Activity at 50 μM (sirtuin): 90%; % Activity at 500 μM (sirtuin): 68%
54 | CCc1ccc(OCCCC(=O)Oc2ccc3c(C)cc(=O)oc3c2)cc1 [compound 6802623] |  |  | % Activity at 50 μM (sirtuin): 86%; % Activity at 500 μM (sirtuin): 53%
55 | Cc1ccc(OCCCC(=O)Oc2ccc3c(C)cc(=O)oc3c2)cc1 [compound 6836332] |  |  | % Activity at 50 μM (sirtuin): 99%; % Activity at 500 μM (sirtuin): 57%
56 | COc1ccc(OCCCC(=O)Oc2ccc3c(C)cc(=O)oc3c2)cc1 [compound 6959933] |  |  | % Activity at 50 μM (sirtuin): 93%; % Activity at 500 μM (sirtuin): 35%
57 | Cc1ccc(OCCCC(=O)Oc2ccc3c(C)cc(=O)oc3c2)c(C)c1 [compound 7988362] |  |  | % Activity at 50 μM (sirtuin): 90%; % Activity at 500 μM (sirtuin): 51%
